Reference: patent publication US9695155B2, “Herbicidal substituted pyrimidinyloxy benzene compounds” (E. I. DU PONT DE NEMOURS AND COMPANY, priority 2013, dated 2017)

Experiments:
Assay in all cases: Test F preemergence
Settings in all cases: 21 days, scale 0 to 100
[1] = tested on: leafy spurge; format: in vivo, Euphorbia esula
Description: (§1) Seeds of plant species selected from bermudagrass (Cynodon dactylon), surinam grass (Brachiaria decumbens), large (Lg) crabgrass (Digitaria sanguinalis), crabgrass, naked (naked crabgrass, Digitaria nuda), foxtail, green (green foxtail, Setaria viridis), johnsongrass (Sorghum halepense), kochia (Kochia scoparia), morningglory (pitted morningglory, Ipomoea lacunosa), nutsedge, purple (purple nutsedge, Cyperus rotundus), ragweed (common ragweed, Ambrosia elatior), mustard, black (black mustard, Brassica nigra), guineagrass (Panicum maximum), dallisgrass (Paspalum dilatatum), barnyardgrass (Echinochloa crus-galli), sandbur (southern sandbur, Cenchrus echinatus), sowthistle (common sowthistle, Sonchus oleraceous), Italian ryegrass (Lolium multiflorum), signalgrass (broadleaf signalgrass, Brachiaria platyphylla), dayflower (Virginia (VA) dayflower, Commelina virginica), bluegrass (annual bluegrass, Poa annua), quackgrass (Elytrigia repens), mallow (common mallow, Malva sylvestris), buckwheat, wild (wild buckwheat, Polygonum convolvulus), leafy spurge (Euphorbia esula), chickweed (common chickweed, Stellaria media), wild poinsettia (Euphorbia heterophylla), and pigweed (Amaranthus retroflexus) were planted into a blend of loam soil and sand and treated preemergence with test chemicals formulated in a non-phytotoxic solvent mixture which included a surfactant.
(§2) Treated plants and controls were maintained in a greenhouse for 21 days, after which time all species were compared to controls and visually evaluated. Plant response ratings, summarized in Table F, are based on a scale of 0 to 100 where 0 is no effect and 100 is complete control. A dash (-) response means no test result.

[2] = tested on: bluegrass; format: in vivo, Poa annua
Description: as §1, §2

[3] = tested on: wild poinsettia; format: in vivo, Euphorbia heterophylla
Description: as §1, §2

N#Cc1cccc(Oc2ncc(F)cn2)c1-n1cc(C(F)(F)F)cn1 [Compound 79, 3-[(5-fluoro-2-pyrimidinyl)oxy]-2-[4-(trifluoromethyl)-1H-pyrazol-1-yl]benzonitrile]
Plant response rating, Leafy Spurge ([1]; 16 g ai/ha): 95 | Plant response rating, Leafy Spurge ([1]; 31 g ai/ha): 98 | Plant response rating, Leafy Spurge ([1]; 62 g ai/ha): 100 | Plant response rating, Leafy Spurge ([1]; 125 g ai/ha): 100 | Plant response rating, Leafy Spurge ([1]; 250 g ai/ha): 100 | Plant response rating, Bluegrass ([2]; 16 g ai/ha): 50 | Plant response rating, Bluegrass ([2]; 31 g ai/ha): 75 | Plant response rating, Bluegrass ([2]; 62 g ai/ha): 98 | Plant response rating, Bluegrass ([2]; 125 g ai/ha): 100 | Plant response rating, Bluegrass ([2]; 250 g ai/ha): 100 | Plant response rating, Poinsettia, Wild ([3]; 16 g ai/ha): 50 | Plant response rating, Poinsettia, Wild ([3]; 31 g ai/ha): 85 | Plant response rating, Poinsettia, Wild ([3]; 62 g ai/ha): 98 | Plant response rating, Poinsettia, Wild ([3]; 125 g ai/ha): 100 | Plant response rating, Poinsettia, Wild ([3]; 250 g ai/ha): 100

N#Cc1cccc(Oc2ncc(Cl)cn2)c1-n1cc(OC(F)F)cn1 [Compound 97]
Plant response rating, Leafy Spurge ([1]; 16 g ai/ha): 98 | Plant response rating, Leafy Spurge ([1]; 31 g ai/ha): 98 | Plant response rating, Leafy Spurge ([1]; 62 g ai/ha): 100 | Plant response rating, Leafy Spurge ([1]; 125 g ai/ha): 100 | Plant response rating, Leafy Spurge ([1]; 250 g ai/ha): 100 | Plant response rating, Bluegrass ([2]; 16 g ai/ha): 5 | Plant response rating, Bluegrass ([2]; 31 g ai/ha): 35 | Plant response rating, Bluegrass ([2]; 62 g ai/ha): 75 | Plant response rating, Bluegrass ([2]; 125 g ai/ha): 98 | Plant response rating, Bluegrass ([2]; 250 g ai/ha): 100 | Plant response rating, Poinsettia, Wild ([3]; 16 g ai/ha): 10 | Plant response rating, Poinsettia, Wild ([3]; 31 g ai/ha): 20 | Plant response rating, Poinsettia, Wild ([3]; 62 g ai/ha): 75 | Plant response rating, Poinsettia, Wild ([3]; 125 g ai/ha): 98 | Plant response rating, Poinsettia, Wild ([3]; 250 g ai/ha): 98
